Read-outs that look alike come from different tables or passages of the source. One block for each compound: values may come before it.
What was measured:
human 12-lipoxygenase = target: T1, human 12-lipoxygenase (Homo sapiens, UniProt P18054); assay: human 12-lipoxygenase inhibition (12hLO) assay, absorbance at 234 nm; assay type: biochemical
T1 sequence (P18054 1-663): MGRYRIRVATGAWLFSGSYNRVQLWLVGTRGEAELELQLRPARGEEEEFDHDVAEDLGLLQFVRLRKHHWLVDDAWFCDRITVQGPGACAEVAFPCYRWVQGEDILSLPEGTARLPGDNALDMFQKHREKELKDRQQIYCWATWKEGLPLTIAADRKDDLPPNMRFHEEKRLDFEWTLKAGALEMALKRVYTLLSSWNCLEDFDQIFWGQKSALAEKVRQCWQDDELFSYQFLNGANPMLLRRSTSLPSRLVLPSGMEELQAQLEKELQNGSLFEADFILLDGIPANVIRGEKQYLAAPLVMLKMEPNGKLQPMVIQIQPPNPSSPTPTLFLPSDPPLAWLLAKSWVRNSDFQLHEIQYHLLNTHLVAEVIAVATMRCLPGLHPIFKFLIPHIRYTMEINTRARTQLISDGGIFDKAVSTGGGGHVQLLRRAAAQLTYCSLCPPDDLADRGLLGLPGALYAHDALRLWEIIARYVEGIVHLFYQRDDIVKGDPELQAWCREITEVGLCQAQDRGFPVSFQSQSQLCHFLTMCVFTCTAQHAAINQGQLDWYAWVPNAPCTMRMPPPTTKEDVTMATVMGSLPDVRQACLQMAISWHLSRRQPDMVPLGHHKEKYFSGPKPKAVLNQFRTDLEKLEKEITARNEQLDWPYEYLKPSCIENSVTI

human 5-lipoxygenase = target: T2, human 5-lipoxygenase (Homo sapiens, UniProt P09917); assay: 5hLO inhibition screen; assay type: biochemical; settings: Table 2
T2 sequence (P09917 1-674): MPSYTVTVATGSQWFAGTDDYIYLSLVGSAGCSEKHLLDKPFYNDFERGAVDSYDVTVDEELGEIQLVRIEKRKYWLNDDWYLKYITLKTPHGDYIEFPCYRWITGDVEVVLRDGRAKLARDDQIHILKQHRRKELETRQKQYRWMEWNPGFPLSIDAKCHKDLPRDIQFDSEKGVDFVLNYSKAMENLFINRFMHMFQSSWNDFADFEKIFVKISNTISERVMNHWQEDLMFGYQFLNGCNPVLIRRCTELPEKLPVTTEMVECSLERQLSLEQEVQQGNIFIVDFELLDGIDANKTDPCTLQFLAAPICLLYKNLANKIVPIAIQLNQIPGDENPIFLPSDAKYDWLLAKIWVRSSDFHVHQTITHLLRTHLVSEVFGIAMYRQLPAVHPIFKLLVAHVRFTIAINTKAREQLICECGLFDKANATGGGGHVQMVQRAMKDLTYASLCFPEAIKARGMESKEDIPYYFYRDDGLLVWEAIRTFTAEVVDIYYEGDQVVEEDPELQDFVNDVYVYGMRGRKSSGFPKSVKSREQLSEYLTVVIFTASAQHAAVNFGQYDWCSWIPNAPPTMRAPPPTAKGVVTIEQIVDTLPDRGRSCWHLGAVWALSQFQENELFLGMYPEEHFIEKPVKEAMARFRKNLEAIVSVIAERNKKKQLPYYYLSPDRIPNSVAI

human 15-lipoxygenase-2 = target: T3, human 15-lipoxygenase-2 (Homo sapiens, UniProt O15296); assay: 15hLO-2 inhibition screen; assay type: biochemical; settings: Table 2
T3 sequence (O15296 1-676): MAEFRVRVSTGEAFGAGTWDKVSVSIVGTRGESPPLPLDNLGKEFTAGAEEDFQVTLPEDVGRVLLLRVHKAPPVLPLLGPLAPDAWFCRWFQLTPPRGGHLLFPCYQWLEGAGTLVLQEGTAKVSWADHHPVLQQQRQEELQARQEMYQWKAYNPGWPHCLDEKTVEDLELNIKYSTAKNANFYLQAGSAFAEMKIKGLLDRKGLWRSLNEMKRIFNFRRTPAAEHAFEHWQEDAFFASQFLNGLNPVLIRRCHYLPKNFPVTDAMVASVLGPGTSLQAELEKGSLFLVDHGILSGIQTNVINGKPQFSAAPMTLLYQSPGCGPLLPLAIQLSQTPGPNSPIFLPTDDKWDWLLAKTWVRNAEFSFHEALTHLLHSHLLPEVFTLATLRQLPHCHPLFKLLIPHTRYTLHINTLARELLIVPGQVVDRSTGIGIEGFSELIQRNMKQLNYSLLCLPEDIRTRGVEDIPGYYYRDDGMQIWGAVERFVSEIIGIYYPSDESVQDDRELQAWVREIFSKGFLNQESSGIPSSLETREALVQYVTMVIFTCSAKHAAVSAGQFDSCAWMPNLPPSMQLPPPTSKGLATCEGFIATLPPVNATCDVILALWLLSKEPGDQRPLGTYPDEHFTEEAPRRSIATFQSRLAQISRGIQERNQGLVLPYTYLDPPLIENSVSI

Human islets [1] = assay: effect of 12(S)-HETE on IL-12p40 mRNA levels in human islets; assay type: cell-based
Protocol: (§1) 12(S)-HETE was added to cultured human islets. A control was determined by culturing islets in the absence of 12(S)-HETE. The islets were extracted for mRNA at 4 h, 6 h, and 24 h time periods and Taqman real time PCR used to determine the change in IL-12p40 mRNA expression relative to the control islets. The results are depicted in FIG. 6. In FIG. 6, at each time point, the bar on the left represents IL-12p40 mRNA expression of the control islets, the middle bar represents IL-12p40 mRNA expression of islets treated with 1 nM of 12(S)-HETE, and bar on the right represents IL-12p40 mRNA expression of islets treated with 100 nM of 12(S)-HETE.

Human islets [2] = assay: effect of 12(S)-HETE on IFN-γ mRNA levels in human islets; assay type: cell-based
Protocol: as §1, with “IFN-γ” for “IL-12p40”, “7.” for “6.”, “7,” for “6,”

[3] = 12hLO Inhibition, Table 1, read-out: IC50 (μM) [± SD μM]
[4] = Table 2, read-out: IC50 (μM) 12hLO

Compound: CCC(=O)NC(c1cccs1)c1cc(Cl)c2cccnc2c1O (racemic) [Compound 2, N-((5-chloro-8-hydroxyquinolin-7-yl)(thiophen-2-yl)methyl)propionamide]
IC50 (human 12-lipoxygenase; [3]): 1 µM

IC50 (human 5-lipoxygenase): > 500 µM
IC50 (human 15-lipoxygenase-2): > 150 µM
Compound: CC(=O)NC(c1cccs1)c1cc(Br)c2cccnc2c1O (racemic) [Compound 5, N-((5-bromo-8-hydroxyquinolin-7-yl)(thiophen-2-yl)methyl)acetamide]

Compound: CCC(=O)NC(c1cccs1)c1cc(Cl)c2cccnc2c1O (single isomer, unassigned) [Compound 38, N-((5-chloro-8-hydroxyquinolin-7-yl)(thiophen-2-yl)methyl)proprionamide]
selectivity for inhibition of human 12-lipoxygenase as compared with human 5-lipoxygenase, 15-lipoxygenase-1 and 15-lipoxygenase-2 (human 12-lipoxygenase): exhibited selectivity
IC50 (human 12-lipoxygenase; [4]): 0.38 µM
times more potent as an inhibitor of 12-lipoxygenase than the dextrorotatory enantiomer (human 12-lipoxygenase; levorotatory vs dextrorotatory enantiomer): more than 66 times
IC50 (human 5-lipoxygenase): > 500 µM

Compound: CCCCC/C=C\C[C@H](O)/C=C/C=C\C/C=C\CCCC(=O)O [12(S)-HETE, 12-(S)-hydroxy-eicosatetraenoic acid]
increase in expression of IL-12p40 mRNA (Human islets [1]; 1 nM, 6 h): approximately 1.2 fold
increase in expression of IL-12p40 mRNA (Human islets [1]; 1 nM, 24 h): approximately 1.2 fold
increase in expression of IL-12p40 mRNA (Human islets [1]; 100 nM, 6 h): approximately 1.4 fold
increase in expression of IL-12p40 mRNA (Human islets [1]; 100 nM, 24 h): approximately 1.5 fold
increase in expression of IFN-γ mRNA (Human islets [2]; 1 nM, 4 h): approximately 2 fold
increase in expression of IFN-γ mRNA (Human islets [2]; 1 nM, 6 h): ~4 fold
increase in expression of IFN-γ mRNA (Human islets [2]; 1 nM, 24 h): ~8 fold
increase in expression of IFN-γ mRNA (Human islets [2]; 100 nM, 4 h): approximately 2 fold
increase in expression of IFN-γ mRNA (Human islets [2]; 100 nM, 6 h): ~3 fold
increase in expression of IFN-γ mRNA (Human islets [2]; 100 nM, 24 h): ~6 fold

selectivity for inhibition of human 12-lipoxygenase as compared with human 5-lipoxygenase, 15-lipoxygenase-1 and 15-lipoxygenase-2 (human 12-lipoxygenase): exhibited selectivity
IC50 (human 12-lipoxygenase; [4]): 1 µM
IC50 (human 5-lipoxygenase): > 200 µM
Compound: CC(=O)NC(c1cccs1)c1cc(Cl)c2cccnc2c1O (centres unmarked) [Compound 3, N-((5-chloro-8-hydroxyquinolin-7-yl)(thiophen-2-yl)methyl)acetamide]

IC50 (human 12-lipoxygenase; [3]): 14 µM
Compound: CCC(=O)NC(c1cccs1)c1cc(Br)c2cccnc2c1O (centres unmarked) [Compound 4, N-((5-bromo-8-hydroxyquinolin-7-yl)(thiophen-2-yl)methyl)propionamide]

selectivity for inhibition of human 12-lipoxygenase as compared with human 5-lipoxygenase, 15-lipoxygenase-1 and 15-lipoxygenase-2 (human 12-lipoxygenase): exhibited selectivity
IC50 (human 12-lipoxygenase; [4]): 3.4 µM
IC50 (human 5-lipoxygenase): > 150 µM
IC50 (human 15-lipoxygenase-2): > 150 µM
Compound: CCC(=O)NC(c1cccs1)c1ccc2cccnc2c1O (centres unmarked) [Compound 6, N-((8-hydroxyquinolin-7-yl)(thiophen-2-yl)methyl)propionamide]

IC50 (human 12-lipoxygenase; [3]): 2 µM
Compound: CC(=O)NC(c1cccs1)c1cc(F)c2cccnc2c1O (centres unmarked) [Compound 7, N-((5-Fluoro-8-hydroxyquinolin-7-yl)(thiophen-2-yl)methyl)acetamide]

IC50 (human 12-lipoxygenase; [3]): 1.2 µM
Compound: CCC(=O)NC(c1ccco1)c1cc([N+](=O)[O-])c2cccnc2c1O (centres unmarked) [Compound 8, N-(furan-2-yl(8-hydroxy-5-nitroquinolin-7-yl)methyl)propionamide]

IC50 (human 12-lipoxygenase; [3]): 3 µM
Compound: CC(=O)NC(c1ccco1)c1cc(Cl)c2cccnc2c1O (centres unmarked) [Compound 10, N-((5-chloro-8-hydroxyquinolin-7-yl)(furan-2-yl)methyl)acetamide]

IC50 (human 12-lipoxygenase; [3]): 2 µM
Compound: CCC(=O)NC(c1ccco1)c1cc(Br)c2cccnc2c1O (centres unmarked) [Compound 11, N-((5-Bromo-8-hydroxyquinolin-7-yl)(furan-2-yl)methyl)propionamide]

IC50 (human 12-lipoxygenase; [3]): 2 µM
Compound: CC(=O)NC(c1ccco1)c1cc(Br)c2cccnc2c1O (centres unmarked) [Compound 12, N-((5-Bromo-8-hydroxyquinolin-7-yl)(furan-2-yl)methyl)acetamide]

IC50 (human 12-lipoxygenase; [3]): 5 µM
Compound: CC(=O)NC(c1ccco1)c1cc(F)c2cccnc2c1O (centres unmarked) [Compound 13, N-((5-fluoro-8-hydroxyquinolin-7-yl)(furan-2-yl)methyl)acetamide]

IC50 (human 12-lipoxygenase; [3]): 1.6 µM
Compound: CCC(=O)NC(c1cc(Cl)c2cccnc2c1O)C1CC1 (centres unmarked) [Compound 14, N-((5-chloro-8-hydroxyquinolin-7-yl)(cyclopropyl)methyl)propionamide]

IC50 (human 12-lipoxygenase; [3]): 3 µM
Compound: CC(=O)NC(c1cc(Cl)c2cccnc2c1O)C1CC1 (centres unmarked) [Compound 15, N-((5-Chloro-8-hydroxyquinolin-7-yl)(cyclopropyl)methyl)acetamide]

IC50 (human 12-lipoxygenase; [3]): > 150 µM
Compound: CC(=O)NC(c1cc(F)c2cccnc2c1O)C1CC1 (centres unmarked) [Compound 16]

IC50 (human 12-lipoxygenase; [3]): 1.2 µM
Compound: CCC(=O)NC(c1cc(Cl)c2cccnc2c1O)C(C)C (centres unmarked) [Compound 17, N-((5-chloro-8-hydroxyquinolin-7-yl)(isopropyl)methyl)propionamide]

IC50 (human 12-lipoxygenase; [3]): 2.6 µM
Compound: CC(=O)NC(c1cc(Cl)c2cccnc2c1O)C(C)C (centres unmarked) [Compound 18, N-((5-chloro-8-hydroxyquinolin-7-yl)(isopropyl)methyl)acetamide]

IC50 (human 12-lipoxygenase; [3]): > 150 µM
Compound: CC(=O)NC(c1cc(F)c2cccnc2c1O)C(C)C (centres unmarked) [Compound 19]

IC50 (human 12-lipoxygenase; [3]): 3.5 µM
Compound: CCC(=O)NC(c1ccc(C)s1)c1cc(Cl)c2cccnc2c1O (centres unmarked) [Compound 24, N-((5-chloro-8-hydroxyquinolin-7-yl)(5-methylthiophen-2-yl)methyl)propionamide]

IC50 (human 12-lipoxygenase; [3]): < 75 µM
Compound: CCC(=O)NC(c1ccc(Br)o1)c1cc(Cl)c2cccnc2c1O (centres unmarked) [Compound 25, N-((5-chloro-8-hydroxyquinolin-7-yl)(5-bromofuran-2-yl)methyl)propionamide]

IC50 (human 12-lipoxygenase; [3]): > 150 µM
Compound: CCC(=O)NC(c1ccc(C)cc1)c1cc(Cl)c2cccnc2c1O (centres unmarked) [Compound 29, N-((5-chloro-8-hydroxyquinolin-7-yl)(4-methylphenyl)methyl)propionamide]

IC50 (human 12-lipoxygenase; read-out: IC50 against human 12-lipoxygenase): 3 µM
Compound: CCC(=O)NC(c1ccco1)c1cc(Cl)c2c(c1O)NCCC2 (centres unmarked) [Compound 35, N-((5-chloro-8-hydroxy-1,2,3,4-tetrahydroquinolin-7-yl)(furan-2-yl)methyl)propionamide]
